Test results published in ChEMBL document CHEMBL4837252, “Zinc ionophores isolated from Terminalia bellirica fruit rind extract protect against cardiomyocyte hypoxia/reoxygenation injury” (2021).
Active and inactive are the calls of the source. The rule behind the calls is not given here.

Assays:
[1] = Zinc ionophore activity assessed as uptake of zinc ions into liposomes by measuring increase in liposome-encapsulated FluoZin3-fluorescence at 10 uM measured after 1 hr in presence of ZnCl2 by fluorescence analysis relative to control
[2] = Zinc ionophore activity assessed as uptake of zinc ions into liposomes by measuring increase in liposome-encapsulated FluoZin3-fluorescence at 10 uM measured after 1 hr in presence of ZnCl2 and TPEN by fluorescence analysis
H9c2 [3] = assay: Cardioprotective activity in rat H9c2 cells assessed as reduction in hypoxia/reoxygenation-induced intracellular Zn2+ level depletion by measuring improvement in intracellular TSQ fluorescence intensity at 10 uM treated at the onset of 1 hr reoxygenation period in the presence of ZnCl2 by TSQ staining based fluorescence analysis relative to control; type: functional
H9c2 [4] = assay: Cardioprotective activity against hypoxia/reoxygenation-induced injury in rat H9c2 cells assessed as cell viability at 10 uM treated after 8 hrs of hypoxia and before 16 hrs of reoxygenation period by MTT assay; type: functional, cell-based
H9c2 [5] = assay: Cardioprotective activity against hypoxia/reoxygenation-induced injury in rat H9c2 cells assessed as cell viability at 10 uM treated after 8 hrs of hypoxia and before 16 hrs of reoxygenation period in presence of ZnCl2 by MTT assay; type: functional; details: read-out: Activity
H9c2 [6] = assay: Inhibition of apoptosis in hypoxia/reoxygenation induced injury in rat H9c2 cells assessed as caspase-3 activity at 10 uM treated after 8 hrs of hypoxia and before 16 hrs of reoxygenation period in presence of ZnCl2 (reference value: 187%); type: functional; set-up: scale not given: the % may be the effect or the level left
H9c2 [7] = assay: (§1) Inhibition of apoptosis in hypoxia/reoxygenation induced injury in rat H9c2 cells assessed as viable cells at 10 uM treated after 8 hrs of hypoxia and before 2 hrs of reoxygenation period in presence of ZnCl2 by AnnexinV-FITC/propidium iodide staining based flow cytometry analysis (reference value: 55.35%); type: functional; details: read-out: Activity
H9c2 [8] = assay: as §1, with “early apoptotic” for “viable”, “36.45%)” for “55.35%)”; type: functional; set-up: scale not given: the % may be the effect or the level left
H9c2 [9] = assay: as §1, with “late apoptotic” for “viable”, “7%)” for “55.35%)”; type: functional; set-up: scale not given: the % may be the effect or the level left
H9c2 [10] = assay: as §1, with “necrotic” for “viable”, “1.25%)” for “55.35%)”; type: functional; set-up: scale not given: the % may be the effect or the level left
H9c2 [11] = assay: Inhibition of apoptosis in hypoxia/reoxygenation induced injury in rat H9c2 cells assessed as viable cells at 10 uM treated after 8 hrs of hypoxia and before 2 hrs of reoxygenation period by AnnexinV-FITC/propidium iodide staining based flow cytometry analysis (reference value: 55.35%); type: functional; details: read-out: Activity
H9c2 [12] = assay: Inhibition of apoptosis in hypoxia/reoxygenation induced injury in rat H9c2 cells assessed as early apoptotic cells at 10 uM treated after 8 hrs of hypoxia and before 2 hrs of reoxygenation period by AnnexinV-FITC/propidium iodide staining based flow cytometry analysis (reference value: 36.45%); type: functional; set-up: scale not given: the % may be the effect or the level left
H9c2 [13] = assay: Inhibition of apoptosis in hypoxia/reoxygenation induced injury in rat H9c2 cells assessed as late apoptotic cells at 10 uM treated after 8 hrs of hypoxia and before 2 hrs of reoxygenation period by AnnexinV-FITC/propidium iodide staining based flow cytometry analysis (reference value: 7%); type: functional; set-up: scale not given: the % may be the effect or the level left
H9c2 [14] = assay: Inhibition of apoptosis in hypoxia/reoxygenation induced injury in rat H9c2 cells assessed as late necrotic cells at 10 uM treated after 8 hrs of hypoxia and before 2 hrs of reoxygenation period by AnnexinV-FITC/propidium iodide staining based flow cytometry analysis (reference value: 1.25%); type: functional; set-up: scale not given: the % may be the effect or the level left

SMILES | fold change (FC) [1] | Activity [2] | fold change (FC) (H9c2 [3]) | Activity (H9c2 [4]) | viability at 10 µM (H9c2 [5]) | Activity (H9c2 [6]) | viability at 10 µM (H9c2 [7]) | Activity (H9c2 [8]) | Activity (H9c2 [9]) | Activity (H9c2 [10]) | viability at 10 µM (H9c2 [11]) | Activity (H9c2 [12]) | Activity (H9c2 [13]) | Activity (H9c2 [14])
Oc1c(I)cc(Cl)c2cccnc12 | 40 | inactive | – | – | – | – | – | – | – | – | – | – | – | –
O=C(O[C@@H]1Cc2c(O)cc(O)cc2O[C@@H]1c1ccc(O)c(O)c1)c1cc(O)c(O)c(O)c1 [EPICATECHIN GALLATE] | 16 | inactive | 2.1 | inactive | 60% | 139% | 73.5% | 22.8% | 2.32% | 1.42% | 54.2% | 37.4% | 7.32% | 1.05%
Oc1cc(O)c2c(c1)O[C@H](c1cc(O)c(O)c(O)c1)[C@H](O)C2 [EPIGALLOCATECHIN] | 8 | inactive | 1 | inactive | 52% | 158% | 61.8% | 26.47% | 6.72% | 5.05% | 47% | 44.27% | 4.77% | 3.92%
O=C(O[C@@H]1Cc2c(O)cc(O)cc2O[C@@H]1c1cc(O)c(O)c(O)c1)c1cc(O)c(O)c(O)c1 [EPIGALOCATECHIN GALLATE] | 28 | inactive | 4 | inactive | 78% | 112% | 80.1% | 16.12% | 2.72% | 0.97% | 52.5% | 37.4% | 8.12% | 2.02%
